Structures can show the parent of a compound that is named as a salt.

For this test, the system named is MOLM-13 cells. Briefly: EPZ-5676 300 nM 7-day pre-treatment, then second compound 72 hours, ATPLite, IC50 shift (Example 6). It is filed as cell-based, human. The note with it: 300 nM EPZ-5676 or DMSO 7-day pre-treatment, then 2nd compound 72 hours, Synergy = IC50 of 2nd compound decreased by 2-fold or more vs DMSO control. The procedure:
Cells were then equilibrated in incubators for 24 hours before treatment with a second compound. Treated assay plates were incubated with a second compound for 72 hours. After this time, plates were developed for endpoint analysis using ATPLite to measure ATP content, which is used as an indicator of cell viability.
“N/D” means that IC50 of the second compound could not be determined for both conditions.
For orientation: Cellular ATP, detected with luciferase, serves as a proxy for viable cell number.
`Nc1cccc2c1C(=O)N(C1CCC(=O)NC1=O)C2=O` (centres unmarked) [Pomalidomide]: the “MOLM-13 (summary of combination study: EPZ-5676 + 2nd compound)” value was “Synergy (considered synergistic if the IC50 value of the second compound decreased by 2-fold or more when EPZ-5676 was added as compared to the DMSO control)”.
Next, `COc1cc([C@@H]2c3cc4c(cc3[C@@H](O[C@@H]3O[C@@H]5CO[C@@H](C)O[C@H]5[C@H](O)[C@H]3O)[C@H]3COC(=O)[C@H]23)OCO4)cc(OC)c1O` [Etoposide]: “Synergy (considered synergistic if the IC50 value of the second compound decreased by 2-fold or more when EPZ-5676 was added as compared to the DMSO control)”; `CCS(=O)(=O)N1CC(CC#N)(n2cc(-c3ncnc4[nH]ccc34)cn2)C1` [Baricitinib]: “Synergy (considered synergistic if the IC50 value of the second compound decreased by 2-fold or more when EPZ-5676 was added as compared to the DMSO control)”; `COc1ccc(C2=N[C@@H](c3ccc(Cl)cc3)[C@@H](c3ccc(Cl)cc3)N2C(=O)N2CCNC(=O)C2)c(OC(C)C)c1` [Nutlin-3]: “Synergy (considered synergistic if the IC50 value of the second compound decreased by 2-fold or more when EPZ-5676 was added as compared to the DMSO control)”.
As for `Cc1cccc(-c2[nH]c(C(C)(C)C)nc2-c2ccc3c(c2)OCO3)n1` [SB-505124], the “MOLM-13 (summary of combination study: EPZ-5676 + 2nd compound)” value is listed as “Synergy (considered synergistic if the IC50 value of the second compound decreased by 2-fold or more when EPZ-5676 was added as compared to the DMSO control)”.
`CC(C)(C)c1nc(-c2cccc(NS(=O)(=O)c3c(F)cccc3F)c2F)c(-c2ccnc(N)n2)s1` [Dabrafenib]: the “MOLM-13 (summary of combination study: EPZ-5676 + 2nd compound)” value is on record as “Synergy (considered synergistic if the IC50 value of the second compound decreased by 2-fold or more when EPZ-5676 was added as compared to the DMSO control)”.
For `c1ccc2c(CCNc3ccc(Nc4ccncc4)cc3)c[nH]c2c1` [JNJ 26854165], the “MOLM-13 (summary of combination study: EPZ-5676 + 2nd compound)” value is given as “Synergy (considered synergistic if the IC50 value of the second compound decreased by 2-fold or more when EPZ-5676 was added as compared to the DMSO control)”.
Next, `N.N.[Cl][Pt][Cl]` [Cisplatin]: “Synergy (considered synergistic if the IC50 value of the second compound decreased by 2-fold or more when EPZ-5676 was added as compared to the DMSO control)”; `c1ccc([C@@H]2C[C@H]2NC2CCNCC2)cc1` [GSK-LSD1]: “Synergy (considered synergistic if the IC50 value of the second compound decreased by 2-fold or more when EPZ-5676 was added as compared to the DMSO control)”.
As to `O=C(c1ccc(OCCN2CCCCC2)cc1)c1c(-c2ccc(O)cc2)sc2cc(O)ccc12` [Raloxifene Hydrochloride], the “MOLM-13 (summary of combination study: EPZ-5676 + 2nd compound)” value is on record as “Synergy (considered synergistic if the IC50 value of the second compound decreased by 2-fold or more when EPZ-5676 was added as compared to the DMSO control)”.
In the case of `COc1ccc(Cl)c(Nc2nc3ccccc3nc2NS(=O)(=O)c2cccc(NC(=O)C(C)(C)N)c2)c1` [XL147], the “MOLM-13 (summary of combination study: EPZ-5676 + 2nd compound)” value was “Synergy (considered synergistic if the IC50 value of the second compound decreased by 2-fold or more when EPZ-5676 was added as compared to the DMSO control)”.
To `CC1=C(/C=C/C(C)=C\C=C\C(C)=C\C(=O)O)C(C)(C)CCC1` [Alitretinoin] belongs “Synergy (considered synergistic if the IC50 value of the second compound decreased by 2-fold or more when EPZ-5676 was added as compared to the DMSO control)”.
In the case of `Cc1cc(Cl)cc(OCCn2cc(F)cn2)c1-c1nc(N)nc2c1CN(C(=O)NCC(C)(F)F)C2` [BEP800], the “MOLM-13 (summary of combination study: EPZ-5676 + 2nd compound)” value is “Synergy (considered synergistic if the IC50 value of the second compound decreased by 2-fold or more when EPZ-5676 was added as compared to the DMSO control)”.
For the compound `C[C@@]1(C(=O)Nc2ccc(F)nc2)CCCN1c1nc(Nc2cc(C3CC3)n[nH]2)c2cccn2n1` [BMS-754807], the “MOLM-13 (summary of combination study: EPZ-5676 + 2nd compound)” value is reported as “Synergy (considered synergistic if the IC50 value of the second compound decreased by 2-fold or more when EPZ-5676 was added as compared to the DMSO control)”.
In the case of `O=C1c2ccccc2-c2nc3nonc3nc21` [SMER 3], the “MOLM-13 (summary of combination study: EPZ-5676 + 2nd compound)” value is “Synergy (considered synergistic if the IC50 value of the second compound decreased by 2-fold or more when EPZ-5676 was added as compared to the DMSO control)”.
With `CO[C@H]1C[C@@H]2CC[C@@H](C)[C@@](O)(O2)C(=O)C(=O)N2CCCC[C@H]2C(=O)O[C@H]([C@H](C)C[C@@H]2CC[C@@H](OC(=O)C(C)(CO)CO)[C@H](OC)C2)CC(=O)[C@H](C)/C=C(\C)[C@@H](O)[C@@H](OC)C(=O)[C@H](C)C[C@H](C)/C=C/C=C/C=C/1C` [Temsirolimus], the “MOLM-13 (summary of combination study: EPZ-5676 + 2nd compound)” value is reported as “Synergy (considered synergistic if the IC50 value of the second compound decreased by 2-fold or more when EPZ-5676 was added as compared to the DMSO control)”.
Turning to `CO[C@H]1C[C@@H]2CC[C@@H](C)[C@@](O)(O2)C(=O)C(=O)N2CCCC[C@H]2C(=O)O[C@H]([C@H](C)C[C@@H]2CC[C@@H](OCCO)[C@H](OC)C2)CC(=O)[C@H](C)/C=C(\C)[C@@H](O)[C@@H](OC)C(=O)[C@H](C)C[C@H](C)/C=C/C=C/C=C/1C` [Everolimus], the “MOLM-13 (summary of combination study: EPZ-5676 + 2nd compound)” value was “Synergy (considered synergistic if the IC50 value of the second compound decreased by 2-fold or more when EPZ-5676 was added as compared to the DMSO control)”.
Next, `O=C(c1cc(Cc2n[nH]c(=O)c3ccccc23)ccc1F)N1CCN(C(=O)C2CC2)CC1` [Olaparib]: “Synergy (considered synergistic if the IC50 value of the second compound decreased by 2-fold or more when EPZ-5676 was added as compared to the DMSO control)”.
For the compound `Clc1ccc(C2(c3ccc(-c4cn[nH]c4)cc3)CCNCC2)cc1` [AT7867], the “MOLM-13 (summary of combination study: EPZ-5676 + 2nd compound)” value is “Synergy (considered synergistic if the IC50 value of the second compound decreased by 2-fold or more when EPZ-5676 was added as compared to the DMSO control)”.
Turning to `CCc1c2c(nc3ccc(OC(=O)N4CCC(N5CCCCC5)CC4)cc13)-c1cc3c(c(=O)n1C2)COC(=O)[C@]3(O)CC` [Irinotecan Hydrochloride], the “MOLM-13 (summary of combination study: EPZ-5676 + 2nd compound)” value was “Synergy (considered synergistic if the IC50 value of the second compound decreased by 2-fold or more when EPZ-5676 was added as compared to the DMSO control)”.
As for `CC(=O)O/N=C1\C(=O)N(Cc2cc(Cl)ccc2Cl)c2ccc(Cl)cc21` [LDN 57444], the “MOLM-13 (summary of combination study: EPZ-5676 + 2nd compound)” value is given as “Synergy (considered synergistic if the IC50 value of the second compound decreased by 2-fold or more when EPZ-5676 was added as compared to the DMSO control)”.
Next, `CC(=O)OC[C@H]1O[C@@H]([S-])[C@H](OC(C)=O)[C@@H](OC(C)=O)[C@@H]1OC(C)=O.CCP(CC)CC.[Au+]` [Auranofin]: “Synergy (considered synergistic if the IC50 value of the second compound decreased by 2-fold or more when EPZ-5676 was added as compared to the DMSO control)”.
With `Cc1ccc2nc(NCCN)c3ncc(C)n3c2c1` [BMS 345541], the “MOLM-13 (summary of combination study: EPZ-5676 + 2nd compound)” value is reported as “Synergy (considered synergistic if the IC50 value of the second compound decreased by 2-fold or more when EPZ-5676 was added as compared to the DMSO control)”.
To `Cc1coc2c1C(=O)C(=O)c1c-2ccc2c1CCCC2(C)C` [TANSHINONE IIA] belongs “Synergy (considered synergistic if the IC50 value of the second compound decreased by 2-fold or more when EPZ-5676 was added as compared to the DMSO control)”; to `CC[C@@]1(O)C(=O)OCc2c1cc1n(c2=O)Cc2cc3c(CN(C)C)c(O)ccc3nc2-1` [Topotecan Hydrochloride], “Synergy (considered synergistic if the IC50 value of the second compound decreased by 2-fold or more when EPZ-5676 was added as compared to the DMSO control)”.
Take `Cc1cccc(CC(=O)N2CCc3c2ccc(-c2cn(C)c4ncnc(N)c24)c3F)n1` [GSK2656157]: the “MOLM-13 (summary of combination study: EPZ-5676 + 2nd compound)” value was “Synergy (considered synergistic if the IC50 value of the second compound decreased by 2-fold or more when EPZ-5676 was added as compared to the DMSO control)”.
As for `Cc1cnc(NC(=O)Nc2cc(Br)c(C)cc2OC[C@@H]2CNCCO2)cn1` [LY2603618], the “MOLM-13 (summary of combination study: EPZ-5676 + 2nd compound)” value is “Synergy (considered synergistic if the IC50 value of the second compound decreased by 2-fold or more when EPZ-5676 was added as compared to the DMSO control)”.
For the compound `CC1=CC(=O)c2ccccc2C1=O` [Menadione], the “MOLM-13 (summary of combination study: EPZ-5676 + 2nd compound)” value was “Synergy (considered synergistic if the IC50 value of the second compound decreased by 2-fold or more when EPZ-5676 was added as compared to the DMSO control)”.
As to `CS(=O)(=O)CCNCc1ccc(-c2ccc3ncnc(Nc4ccc(OCc5cccc(F)c5)c(Cl)c4)c3c2)o1` [Lapatinib], the “MOLM-13 (summary of combination study: EPZ-5676 + 2nd compound)” value was “Synergy (considered synergistic if the IC50 value of the second compound decreased by 2-fold or more when EPZ-5676 was added as compared to the DMSO control)”.
In the case of `CC[C@H](Nc1ncnc2[nH]cnc12)c1nc2cccc(F)c2c(=O)n1-c1ccccc1` [CAL-101], the “MOLM-13 (summary of combination study: EPZ-5676 + 2nd compound)” value is listed as “Synergy (considered synergistic if the IC50 value of the second compound decreased by 2-fold or more when EPZ-5676 was added as compared to the DMSO control)”.
In the case of `Cn1c2ccccc2c2c3c(c4c5ccccc5n(CCC#N)c4c21)CNC3=O` [Go 6976], the “MOLM-13 (summary of combination study: EPZ-5676 + 2nd compound)” value is given as “Synergy (considered synergistic if the IC50 value of the second compound decreased by 2-fold or more when EPZ-5676 was added as compared to the DMSO control)”.
As to `Nc1ccccc1NC(=O)c1ccc(CNC(=O)OCc2cccnc2)cc1` [MS-275], the “MOLM-13 (summary of combination study: EPZ-5676 + 2nd compound)” value is on record as “Synergy (considered synergistic if the IC50 value of the second compound decreased by 2-fold or more when EPZ-5676 was added as compared to the DMSO control)”.

For the origin of these results see patent US20200030355A1, “COMBINATION THERAPY FOR TREATING CANCER” (Epizyme, Inc., priority 2014, published 2020).
